This passage reports IC50 and MIC results from ChEMBL document CHEMBL3867449, “Cytotoxic and Antibacterial Preussomerins from the Mangrove Endophytic Fungus Lasiodiplodia theobromae ZJ-HQ1” (J Nat Prod, 2016).

Structures are written as SMILES. Values after ≈ are worked out from the molar mass of the structure shown.

A short description of series [1]: Cytotoxicity against human A549 cells assessed as decrease in cell viability after 72 hrs by MTS assay. The class given is functional, cell-based. The following applies: A549, 72 h. On the technique in general: Tetrazolium assays rely on reduction of a dye to a coloured formazan, in cell work by metabolically active cells.
For series [2], the system named is Escherichia coli. The series can be described thus: Antibacterial activity against Escherichia coli ATCC 25922 by broth dilution method. It counts as functional. (In general: In broth dilution the organism is exposed to a series of concentrations in liquid medium.)
The subject of series [3] is Staphylococcus aureus. Put plainly: Antibacterial activity against Staphylococcus aureus ATCC 12598 by broth dilution method. It counts as functional.
The nature of series [4]: Cytotoxicity against human HeLa cells assessed as decrease in cell viability after 72 hrs by MTS assay. It counts as functional, cell-based.
Series [5] concerns Salmonella enteritidis. Put plainly: Antibacterial activity against Salmonella enteritidis ATCC 13076 by broth dilution method. It counts as functional, Salmonella enterica subsp. enterica serovar Enteritidis. The note with it: Salmonella enterica.
Series [6] concerns Bacillus spizizenii. Put plainly: Antibacterial activity against Bacillus subtilis ATCC 6633 by broth dilution method. It counts as functional.
Series [7] can be described thus: Cytotoxicity against HEK293T cells assessed as decrease in cell viability after 72 hrs by MTS assay. The note with it: human. The class given is toxicity, cell-based, HEK-293T.
Series [8] has as its system Pseudomonas aeruginosa. The series can be described thus: Antibacterial activity against Pseudomonas aeruginosa ATCC 27853 by broth dilution method. The class given is functional.
Series [9] can be described thus: Cytotoxicity against human MCF7 cells assessed as decrease in cell viability after 72 hrs by MTS assay. The class given is functional, cell-based. The following applies: MCF7, 72 h.
Series [10] in a line: Cytotoxicity against human HepG2 cells assessed as decrease in cell viability after 72 hrs by MTS assay. It counts as functional, cell-based. The note with it: HepG2, 72 h.

In general, IC50 refers to the point on the concentration scale where inhibition reaches its midpoint. As usually defined, the MIC is the least concentration at which growth counts as inhibited. Lower therefore signals a more susceptible organism.

Consider `Oc1ccc2c3c1[C@@H](O)[C@H]1O[C@H]1[C@]31Oc3cccc4c3[C@](C=C[C@@H]4O)(O2)O1`, for which the 50% inhibitory concentration (IC50) in series [1] is 40.2 µM; in [4] it was > 100 µM; in series [9] it was 71 µM; in series [10] it was > 100 µM. Moreover, the MIC is > 50 µg/mL in [2]; 6.2 µg/mL (≈ 16.9 µM) in series [3]; > 50 µg/mL in [5]; 13 µg/mL (≈ 35.5 µM) in series [6]; > 50 µg/mL in series [8]. Besides, the IC50 at 72 h in series [7] is > 100 µM.
With `O=C1c2c(O)ccc3c2[C@@]2(Oc4cccc5c4[C@](C=C[C@@H]5O)(O3)O2)[C@@H]2O[C@H]12`, the IC50 turned out to be 7.7 µM in [1], 18 µM in series [4], 3.1 µM in [9] and 3.6 µM in [10]. The MIC was > 50 µg/mL in [2]; 13 µg/mL (≈ 35.7 µM) in series [3]; > 50 µg/mL in series [5]; 25 µg/mL (≈ 68.6 µM) in [6]; > 50 µg/mL in series [8]. In addition, the IC50 at 72 h in series [7] came out at 6.9 µM.
`O=C(O)c1cn(C2CC2)c2cc(N3CCNCC3)c(F)cc2c1=O` [CIPROFLOXACIN]: the MIC in series [3] came out at 0.25 µg/mL (≈ 0.754 µM); in series [5], 0.25 µg/mL (≈ 0.754 µM); in [6], 0.5 µg/mL (≈ 1.51 µM).
As to `CO[C@@H]1CC(=O)c2cccc3c2[C@@]12Oc1ccc(O)c4c1[C@](O3)(O2)[C@H](O)[C@H](Cl)C4=O`, the IC50 turned out to be 8.5 µM in series [1], 19 µM in series [4], 5.9 µM in series [9] and 13 µM in series [10]. Besides, the MIC was > 50 µg/mL in [2]; 6.2 µg/mL (≈ 14.4 µM) in series [3]; > 50 µg/mL in series [5]; 50 µg/mL (≈ 116 µM) in [6]; > 50 µg/mL in [8]. In addition, the IC50 at 72 h in [7] amounted to 4.8 µM.
On to `COc1cccc2c1C(=O)c1c(O)c3c(c(O)c1C2=O)C[C@@](O)(C(=O)CO)C[C@@H]3O[C@H]1C[C@H](N)[C@@H](O)[C@H](C)O1` [EPIRUBICIN], for which the results for the IC50 in series [1], in [4] and in [9] were 0.63 µM, 0.42 µM and 0.71 µM, respectively.
With `O=C1CC[C@]23Oc4ccc(O)c5c4[C@](Oc4cccc1c42)(O3)[C@@H]1O[C@@H]1C5=O`, the IC50 in series [1] came to 9.4 µM; in [4], 19 µM; in [9], 2.6 µM; in [10], 4.4 µM. The MIC in [2] is > 50 µg/mL; in [3] it was 1.6 µg/mL (≈ 4.39 µM); in [5] it was > 50 µg/mL; in series [6] it was 13 µg/mL (≈ 35.7 µM); in series [8] it was > 50 µg/mL. In [7], the IC50 at 72 h came out at 12 µM.
For `CO[C@@H]1CC(=O)c2cccc3c2[C@@]12Oc1ccc(O)c4c1[C@](O3)(O2)[C@H](O)CC4=O`, the IC50 in [1] was 36.1 µM; in [4], > 100 µM; in series [9] it was 13 µM; in [10] it was 83 µM. Also, in series [7], the IC50 at 72 h came to 83 µM.
On to `O=C1C[C@@H](O)[C@]23Oc4ccc(O)c5c4[C@](Oc4cccc1c42)(O3)[C@@H]1O[C@@H]1C5=O`, for which the IC50 in series [1] is 5.4 µM; in [4] it was 15 µM; in series [9], 2.5 µM; in series [10], 3.8 µM. In addition, the MIC in series [2] is > 50 µg/mL; in series [3] it was 50 µg/mL (≈ 131 µM); in series [5] it was > 50 µg/mL; in series [6] it was 25 µg/mL (≈ 65.7 µM); in series [8] it was > 50 µg/mL. Also, the IC50 at 72 h in series [7] was determined as 9.4 µM.
Turning to `O=C1C=C[C@]23Oc4ccc(O)c5c4[C@](Oc4cccc1c42)(O3)[C@@H]1O[C@@H]1C5=O`, the IC50 in [1] was determined as 6.2 µM; in [4], 14 µM; in [9], 4.2 µM; in series [10], 8.5 µM. Besides, the minimal inhibitory concentration (MIC) was > 50 µg/mL in [2]; 13 µg/mL (≈ 35.9 µM) in series [3]; > 50 µg/mL in [5]; 50 µg/mL (≈ 138 µM) in series [6]; > 50 µg/mL in series [8]. Besides, the IC50 at 72 h in [7] was 17 µM.
For the compound `CO[C@@H]1CC(=O)c2cccc3c2[C@@]12Oc1ccc(O)c4c1[C@](O3)(O2)[C@@H]1O[C@@H]1[C@@H]4O` [PREUSSOMERIN C], the IC50 in [1], in series [4], in series [9] and in series [10] was > 100 µM in each case. The MIC in series [2], in [3], in series [5], in [6] and in series [8] was > 50 µg/mL throughout. Besides, the IC50 at 72 h in [7] is > 100 µM.
For the compound `CO[C@@H]1[C@H](Cl)C(=O)c2c(O)ccc3c2[C@@]12Oc1cccc4c1[C@](O3)(O2)[C@H](OC)CC4=O`, the half-inhibitory concentration (IC50) is 8.9 µM in [1], 27 µM in [4], 6.2 µM in [9] and 7.7 µM in series [10]. Besides, the MIC in series [2] was > 50 µg/mL; in series [3], 3.2 µg/mL (≈ 7.19 µM); in series [5] it was > 50 µg/mL; in [6] it was 25 µg/mL (≈ 56.2 µM); in [8] it was > 50 µg/mL. In addition, in series [7], the IC50 at 72 h is 11 µM.
Turning to `O=C1C=C[C@]23Oc4ccc(O)c5c4[C@](Oc4cccc1c42)(O3)[C@@H]1O[C@@H]1[C@@H]5O` [PREUSSOMERIN D], the IC50 in series [1] is 6.6 µM; in series [4], 21 µM; in series [9], 9.8 µM; in [10], 38 µM. In addition, the IC50 at 72 h in [7] was found to be 24 µM.
Regarding `O=C1CC[C@]23Oc4ccc(O)c5c4[C@](Oc4cccc1c42)(O3)[C@@H]1O[C@@H]1[C@@H]5O`, the half-inhibitory concentration (IC50) in series [1] is 76.2 µM; in series [4], > 100 µM; in series [9], > 100 µM; in series [10] it was > 100 µM. Also, in series [7], the IC50 at 72 h was determined as 86 µM.
